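Interpolation was linear, between the two tested concentrations surrounding the appropriate level; five concentrations were tested over 48 hours in 96-well plates. Abbreviation: GI50, concentration required for 50% inhibition of growth.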 Active and inactive are the calls of the source. Rule as the data show it: active = GI50 up to about 1.1 µM and inactive = higher.
Legend:
Assay in all cases: NCI tumour cell line growth inhibition, 48 h
TK-10 = system: TK-10
Malme-3M = system: Malme-3M
LOX IMVI = system: LOX IMVI
MOLT-4 = system: MOLT-4
KM12 = system: KM12
OVCAR-5 = system: OVCAR-5
EKVX = system: EKVX
NCI-H226 = system: NCI-H226
RXF 393 = system: RXF 393
IGROV-1 = system: IGROV-1
SN12C = system: SN12C
K562 = system: K562
HL-60 = system: HL-60
SK-OV-3 = system: SK-OV-3
OVCAR-4 = system: OVCAR-4
UACC-62 = system: UACC-62
NCI-H23 = system: NCI-H23
SF-539 = system: SF-539

Measured: GI50

O=C(Nc1cc(Cl)c(Cl)cc1Cl)C(=O)C(C(=O)c1ccccc1)C1OC(=O)c2ccccc21 (configuration not stated)
inactive: TK-10 > 100 µM | Malme-3M > 100 µM | LOX IMVI > 100 µM | MOLT-4 > 100 µM | KM12 > 100 µM | OVCAR-5 > 100 µM | EKVX > 100 µM | NCI-H226 > 100 µM | RXF 393 > 100 µM | IGROV-1 > 100 µM | SN12C > 100 µM | K562 > 100 µM | HL-60 > 100 µM | SK-OV-3 > 100 µM | OVCAR-4 > 100 µM | UACC-62 > 100 µM | NCI-H23 > 100 µM

Cc1cc(C)nc(NS(=O)(=O)c2ccc(Nc3c4ccccc4nc4c(C(=O)Nc5ccc(S(=O)(=O)Nc6cc(C)on6)cc5)ccc(Cl)c34)cc2)n1
inactive: TK-10 76 µM | Malme-3M 28.1 µM | LOX IMVI 22.2 µM | MOLT-4 19.5 µM | KM12 17.3 µM | OVCAR-5 18.7 µM | EKVX 25.5 µM | RXF 393 14.8 µM | SN12C 21.3 µM | K562 27.8 µM | SK-OV-3 69.7 µM | OVCAR-4 28.6 µM | UACC-62 26.4 µM | SF-539 21.5 µM | NCI-H23 20.3 µM

COC(=O)C1=C(C(=O)OC)C2(CCCCCC2=O)OC1=O (configuration not stated)
inactive: TK-10 > 100 µM | Malme-3M > 100 µM | MOLT-4 > 100 µM | KM12 > 100 µM | OVCAR-5 > 100 µM | EKVX > 100 µM | NCI-H226 > 100 µM | RXF 393 > 100 µM | IGROV-1 > 100 µM | SN12C > 100 µM | K562 > 100 µM | HL-60 > 100 µM | SK-OV-3 > 100 µM | OVCAR-4 > 100 µM | UACC-62 > 100 µM | SF-539 > 100 µM | NCI-H23 > 100 µM

CC1=Nn2c(nnc2-c2ccc(N)cc2)NC(C)(C)C1
inactive: TK-10 > 100 µM | Malme-3M > 100 µM | LOX IMVI > 100 µM | MOLT-4 > 100 µM | KM12 > 100 µM | OVCAR-5 > 100 µM | EKVX > 100 µM | NCI-H226 > 100 µM | IGROV-1 > 100 µM | K562 > 100 µM | HL-60 > 100 µM | SK-OV-3 > 100 µM | OVCAR-4 > 100 µM | UACC-62 > 100 µM | SF-539 > 100 µM | NCI-H23 > 100 µM

O=C1CCCCC12CCC/C2=N\O (configuration not stated)
inactive: TK-10 > 100 µM | Malme-3M > 100 µM | MOLT-4 > 100 µM | KM12 > 100 µM | EKVX > 100 µM | NCI-H226 > 100 µM | RXF 393 > 100 µM | IGROV-1 > 100 µM | SN12C > 100 µM | K562 > 100 µM | HL-60 > 100 µM | SK-OV-3 > 100 µM | OVCAR-4 > 100 µM | UACC-62 > 100 µM | SF-539 > 100 µM

COc1ccc(Nc2nc3cc(C(F)(F)F)ccc3nc2-c2ccccc2)cc1OC
inactive: TK-10 15 µM | Malme-3M 21.7 µM | LOX IMVI 19.8 µM | MOLT-4 > 100 µM | KM12 > 100 µM | OVCAR-5 > 100 µM | EKVX 17.3 µM | NCI-H226 15.8 µM | RXF 393 11.9 µM | IGROV-1 24.9 µM | SN12C 39.7 µM | K562 61 µM | SK-OV-3 15.9 µM | OVCAR-4 24 µM | UACC-62 27.4 µM | SF-539 39.5 µM | NCI-H23 25.7 µM

NC(CCCNCc1ccccc1)C(=O)O (configuration not stated)
inactive: TK-10 > 100 µM | Malme-3M > 100 µM | LOX IMVI > 100 µM | MOLT-4 > 100 µM | KM12 > 100 µM | EKVX > 100 µM | NCI-H226 > 100 µM | IGROV-1 > 100 µM | SN12C > 100 µM | K562 > 100 µM | HL-60 > 100 µM | SK-OV-3 > 100 µM | OVCAR-4 > 100 µM | UACC-62 > 100 µM | SF-539 > 100 µM | NCI-H23 > 100 µM

CCOC1=C2N=C(Cc3ccccc3F)N=C2C(=O)c2ccccc21
inactive: Malme-3M > 100 µM | MOLT-4 > 100 µM | KM12 > 100 µM | EKVX > 100 µM | NCI-H226 > 100 µM | RXF 393 > 100 µM | SN12C > 100 µM | K562 > 100 µM | HL-60 > 100 µM | OVCAR-4 > 100 µM | UACC-62 > 100 µM | SF-539 > 100 µM | NCI-H23 > 100 µM

C=CCOC(C)n1c(C)c(Br)c(=O)[nH]c1=O (configuration not stated)
inactive: TK-10 > 100 µM | Malme-3M > 100 µM | LOX IMVI > 100 µM | MOLT-4 > 100 µM | KM12 > 100 µM | OVCAR-5 > 100 µM | EKVX > 100 µM | NCI-H226 > 100 µM | RXF 393 > 100 µM | IGROV-1 > 100 µM | SN12C > 100 µM | HL-60 > 100 µM | SK-OV-3 65.2 µM | UACC-62 > 100 µM | SF-539 > 100 µM | NCI-H23 > 100 µM

Reference: ChEMBL document CHEMBL1201862, “PubChem BioAssay data set” (2004)
